Measurements from PubChem BioAssay AID1259407 (Chemical Carcinogenesis Research Information System (CCRIS), 2018).
The source made the active and inactive calls. No rule for the calls is given here.

Test system: CCRIS mutagenicity, Ames/micronucleus/aberration tests
Assay: CCRIS mutagenicity studies
[1] = Test System: AMES SALMONELLA TYPHIMURIUM, Strain/Indicator: TA98, Metabolic Activation: NONE, Method: PREINCUBATION
[2] = Test System: AMES SALMONELLA TYPHIMURIUM, Strain/Indicator: TA100, Metabolic Activation: NONE, Method: PREINCUBATION
[3] = Test System: AMES SALMONELLA TYPHIMURIUM, Strain/Indicator: TA102, Metabolic Activation: NONE, Method: STANDARD PLATE
[4] = Test System: AMES SALMONELLA TYPHIMURIUM, Strain/Indicator: TA1535, Metabolic Activation: NONE, Method: PREINCUBATION
[5] = Test System: AMES SALMONELLA TYPHIMURIUM, Strain/Indicator: TA1537, Metabolic Activation: NONE, Method: PREINCUBATION
[6] = Test System: AMES SALMONELLA TYPHIMURIUM, Strain/Indicator: TA98, Metabolic Activation: NONE, Method: STANDARD PLATE
[7] = Test System: AMES SALMONELLA TYPHIMURIUM, Strain/Indicator: TA100, Metabolic Activation: NONE, Method: STANDARD PLATE

COc1cccc(N)c1
mutagenic call (End Point: IN VITRO CHROMOSOMAL ABERRATIONS, Test System: CHINESE HAMSTER OVARY CELLS, Metabolic Activation: NONE): active; positive | mutagenic call (End Point: IN VITRO CHROMOSOMAL ABERRATIONS, Test System: CHINESE HAMSTER OVARY CELLS, Metabolic Activation: RAT, LIVER, S-9, AROCLOR 1254): inactive; negative | mutagenic call (Test System: AMES SALMONELLA TYPHIMURIUM, Strain/Indicator: TA98, Metabolic Activation: HAMSTER, LIVER, S-9, AROCLOR 1254, Method: PREINCUBATION): inactive; negative | mutagenic call [1]: inactive; negative | mutagenic call (Test System: AMES SALMONELLA TYPHIMURIUM, Strain/Indicator: TA98, Metabolic Activation: RAT, LIVER, S-9, AROCLOR 1254, Method: PREINCUBATION): inactive; negative | mutagenic call (Test System: AMES SALMONELLA TYPHIMURIUM, Strain/Indicator: TA100, Metabolic Activation: HAMSTER, LIVER, S-9, AROCLOR 1254, Method: PREINCUBATION): inactive; negative | mutagenic call [2]: inactive; negative | mutagenic call (Test System: AMES SALMONELLA TYPHIMURIUM, Strain/Indicator: TA100, Metabolic Activation: RAT, LIVER, S-9, AROCLOR 1254, Method: PREINCUBATION): inactive; negative | mutagenic call [3]: inactive; negative | mutagenic call (Test System: AMES SALMONELLA TYPHIMURIUM, Strain/Indicator: TA1535, Metabolic Activation: HAMSTER, LIVER, S-9, AROCLOR 1254, Method: PREINCUBATION): inactive; negative | mutagenic call [4]: inactive; negative | mutagenic call (Test System: AMES SALMONELLA TYPHIMURIUM, Strain/Indicator: TA1535, Metabolic Activation: RAT, LIVER, S-9, AROCLOR 1254, Method: PREINCUBATION): inactive; negative | mutagenic call (Test System: AMES SALMONELLA TYPHIMURIUM, Strain/Indicator: TA1537, Metabolic Activation: HAMSTER, LIVER, S-9, AROCLOR 1254, Method: PREINCUBATION): inactive; negative | mutagenic call [5]: inactive; negative | mutagenic call (Test System: AMES SALMONELLA TYPHIMURIUM, Strain/Indicator: TA1537, Metabolic Activation: RAT, LIVER, S-9, AROCLOR 1254, Method: PREINCUBATION): inactive; negative | mutagenic call (Test System: AMES SALMONELLA TYPHIMURIUM, Strain/Indicator: TA2638, Metabolic Activation: NONE, Method: STANDARD PLATE): inactive; negative | mutagenic call (Test System: E. COLI, Strain/Indicator: WP2 (PKM101), Metabolic Activation: NONE, Method: STANDARD PLATE): inactive; negative | mutagenic call (Test System: E. COLI, Strain/Indicator: WP2 UVRA (PKM101), Metabolic Activation: NONE, Method: STANDARD PLATE): inactive; negative

c1ccc(-c2nc3ccccc3o2)cc1
mutagenic call [6]: inactive; negative | mutagenic call (Test System: AMES SALMONELLA TYPHIMURIUM, Strain/Indicator: TA98, Metabolic Activation: S-9, Method: STANDARD PLATE): inactive; negative

[N-]=[N+]=NCC(=O)O
mutagenic call (Test System: AMES SALMONELLA TYPHIMURIUM, Strain/Indicator: TA1530, Metabolic Activation: NONE, Method: STANDARD PLATE): inactive; negative

CCC(C)c1ccc(/C=C/c2ccc(N)cc2)cc1 (stereo not drawn)
mutagenic call [6]: inactive; negative | mutagenic call (Test System: AMES SALMONELLA TYPHIMURIUM, Strain/Indicator: TA98, Metabolic Activation: RAT, LIVER, S-9, AROCLOR, Method: STANDARD PLATE): active; positive | mutagenic call [7]: inactive; negative | mutagenic call (Test System: AMES SALMONELLA TYPHIMURIUM, Strain/Indicator: TA100, Metabolic Activation: RAT, LIVER, S-9, AROCLOR, Method: STANDARD PLATE): active; positive

NC(=O)NCC(=O)O
mutagenic call (Test System: AMES SALMONELLA TYPHIMURIUM, Strain/Indicator: TA97, Metabolic Activation: NONE, Method: STANDARD PLATE): inactive; negative | mutagenic call (Test System: AMES SALMONELLA TYPHIMURIUM, Strain/Indicator: TA97, Metabolic Activation: RAT, LIVER, S-9, AROCLOR 1254, Method: STANDARD PLATE): inactive; negative | mutagenic call [6]: inactive; negative | mutagenic call (Test System: AMES SALMONELLA TYPHIMURIUM, Strain/Indicator: TA98, Metabolic Activation: RAT, LIVER, S-9, AROCLOR 1254, Method: STANDARD PLATE): inactive; negative | mutagenic call [7]: inactive; negative | mutagenic call (Test System: AMES SALMONELLA TYPHIMURIUM, Strain/Indicator: TA100, Metabolic Activation: RAT, LIVER, S-9, AROCLOR 1254, Method: STANDARD PLATE): inactive; negative | mutagenic call [3]: inactive; negative | mutagenic call (Test System: AMES SALMONELLA TYPHIMURIUM, Strain/Indicator: TA102, Metabolic Activation: RAT, LIVER, S-9, AROCLOR 1254, Method: STANDARD PLATE): inactive; negative

N#Cc1ccc([N+](=O)[O-])cc1
mutagenic call [1]: inactive; negative | mutagenic call (Test System: AMES SALMONELLA TYPHIMURIUM, Strain/Indicator: TA98, Method: PREINCUBATION): inactive; negative | mutagenic call [2]: inactive; negative | mutagenic call (Test System: AMES SALMONELLA TYPHIMURIUM, Strain/Indicator: TA100, Method: PREINCUBATION): inactive; negative | mutagenic call [4]: inactive; negative | mutagenic call (Test System: AMES SALMONELLA TYPHIMURIUM, Strain/Indicator: TA1535, Method: PREINCUBATION): inactive; negative | mutagenic call [5]: inactive; negative | mutagenic call (Test System: AMES SALMONELLA TYPHIMURIUM, Strain/Indicator: TA1537, Method: PREINCUBATION): inactive; negative | mutagenic call (Test System: AMES SALMONELLA TYPHIMURIUM, Strain/Indicator: TA1538, Metabolic Activation: NONE, Method: PREINCUBATION): inactive; negative | mutagenic call (Test System: AMES SALMONELLA TYPHIMURIUM, Strain/Indicator: TA1538, Method: PREINCUBATION): inactive; negative
